Conditions: Liquid, expansion method

CO [methanol]
Conditions | isothermal compressibility
208.17 K, 390 kPa | 7.15e-07 1/kPa
208.17 K, 2110 kPa | 6.78e-07 1/kPa
208.17 K, 5020 kPa | 6.63e-07 1/kPa
208.17 K, 7970 kPa | 6.47e-07 1/kPa
208.17 K, 10910 kPa | 6.37e-07 1/kPa
208.17 K, 13880 kPa | 6.24e-07 1/kPa
208.17 K, 16980 kPa | 6.12e-07 1/kPa
208.17 K, 20090 kPa | 6.02e-07 1/kPa
208.17 K, 23230 kPa | 5.9e-07 1/kPa
208.17 K, 30160 kPa | 5.68e-07 1/kPa
208.17 K, 33540 kPa | 5.57e-07 1/kPa
208.17 K, 37190 kPa | 5.46e-07 1/kPa
208.17 K, 41120 kPa | 5.34e-07 1/kPa
208.17 K, 45130 kPa | 5.26e-07 1/kPa
208.17 K, 49210 kPa | 5.15e-07 1/kPa
208.17 K, 53370 kPa | 5.04e-07 1/kPa
208.17 K, 57610 kPa | 4.95e-07 1/kPa
208.17 K, 61920 kPa | 4.85e-07 1/kPa
208.17 K, 66300 kPa | 4.78e-07 1/kPa
208.17 K, 70740 kPa | 4.7e-07 1/kPa
208.17 K, 75250 kPa | 4.6e-07 1/kPa
208.17 K, 79850 kPa | 4.53e-07 1/kPa
208.17 K, 84300 kPa | 4.48e-07 1/kPa
208.17 K, 88600 kPa | 4.41e-07 1/kPa
208.17 K, 92960 kPa | 4.35e-07 1/kPa
208.17 K, 97910 kPa | 4.18e-07 1/kPa
223.17 K, 1060 kPa | 7.59e-07 1/kPa
223.17 K, 3160 kPa | 7.44e-07 1/kPa
223.17 K, 5540 kPa | 7.28e-07 1/kPa
223.17 K, 8010 kPa | 7.14e-07 1/kPa
223.17 K, 10640 kPa | 7.01e-07 1/kPa
223.17 K, 13500 kPa | 6.84e-07 1/kPa
223.17 K, 16660 kPa | 6.62e-07 1/kPa
223.17 K, 19820 kPa | 6.59e-07 1/kPa
223.17 K, 22850 kPa | 6.45e-07 1/kPa
223.17 K, 25930 kPa | 6.33e-07 1/kPa
223.17 K, 29040 kPa | 6.2e-07 1/kPa
223.17 K, 32210 kPa | 6.08e-07 1/kPa
223.17 K, 35450 kPa | 5.98e-07 1/kPa
223.17 K, 38770 kPa | 5.87e-07 1/kPa
223.17 K, 42230 kPa | 5.74e-07 1/kPa
223.17 K, 45780 kPa | 5.66e-07 1/kPa
223.17 K, 49400 kPa | 5.55e-07 1/kPa
223.17 K, 53080 kPa | 5.45e-07 1/kPa
223.17 K, 56960 kPa | 5.3e-07 1/kPa
223.17 K, 61040 kPa | 5.23e-07 1/kPa
223.17 K, 65060 kPa | 5.15e-07 1/kPa
223.17 K, 69050 kPa | 5.06e-07 1/kPa
223.17 K, 73000 kPa | 4.98e-07 1/kPa
223.17 K, 76980 kPa | 4.9e-07 1/kPa
223.17 K, 81110 kPa | 4.82e-07 1/kPa
223.17 K, 85330 kPa | 4.72e-07 1/kPa
223.17 K, 89630 kPa | 4.66e-07 1/kPa
223.17 K, 94200 kPa | 4.54e-07 1/kPa
223.17 K, 98850 kPa | 4.51e-07 1/kPa
248.19 K, 1680 kPa | 8.6e-07 1/kPa
248.19 K, 4590 kPa | 8.53e-07 1/kPa
248.19 K, 7250 kPa | 8.36e-07 1/kPa
248.19 K, 9880 kPa | 8.18e-07 1/kPa
248.19 K, 12580 kPa | 8.01e-07 1/kPa
248.19 K, 15470 kPa | 7.74e-07 1/kPa
248.19 K, 18450 kPa | 7.62e-07 1/kPa
248.19 K, 21360 kPa | 7.48e-07 1/kPa
248.19 K, 24330 kPa | 7.3e-07 1/kPa
248.19 K, 27310 kPa | 7.19e-07 1/kPa
248.19 K, 30180 kPa | 7.07e-07 1/kPa
248.19 K, 33000 kPa | 6.92e-07 1/kPa
248.19 K, 35670 kPa | 6.84e-07 1/kPa
248.19 K, 38600 kPa | 6.64e-07 1/kPa
248.19 K, 41780 kPa | 6.56e-07 1/kPa
248.19 K, 44760 kPa | 6.45e-07 1/kPa
248.19 K, 47880 kPa | 6.33e-07 1/kPa
248.19 K, 51230 kPa | 6.19e-07 1/kPa
248.19 K, 54640 kPa | 6.09e-07 1/kPa
248.19 K, 57930 kPa | 5.99e-07 1/kPa
248.19 K, 61270 kPa | 5.85e-07 1/kPa
248.19 K, 64800 kPa | 5.75e-07 1/kPa
248.19 K, 68310 kPa | 5.66e-07 1/kPa
248.19 K, 71740 kPa | 5.57e-07 1/kPa
248.19 K, 75070 kPa | 5.49e-07 1/kPa
248.19 K, 78410 kPa | 5.41e-07 1/kPa
248.19 K, 81890 kPa | 5.31e-07 1/kPa
248.19 K, 85380 kPa | 5.25e-07 1/kPa
248.19 K, 88990 kPa | 5.18e-07 1/kPa
248.19 K, 92540 kPa | 5.18e-07 1/kPa
248.19 K, 96400 kPa | 5e-07 1/kPa
248.19 K, 100840 kPa | 4.9e-07 1/kPa
263.17 K, 1420 kPa | 9.64e-07 1/kPa
263.17 K, 3920 kPa | 9.42e-07 1/kPa
263.17 K, 6360 kPa | 9.2e-07 1/kPa
263.17 K, 8840 kPa | 9.02e-07 1/kPa
263.17 K, 11360 kPa | 8.82e-07 1/kPa
263.17 K, 13920 kPa | 8.62e-07 1/kPa
263.17 K, 16580 kPa | 8.42e-07 1/kPa
263.17 K, 19270 kPa | 8.26e-07 1/kPa
263.17 K, 22000 kPa | 8.07e-07 1/kPa
263.17 K, 24860 kPa | 7.88e-07 1/kPa
263.17 K, 27740 kPa | 7.73e-07 1/kPa
263.17 K, 30600 kPa | 7.56e-07 1/kPa
263.17 K, 33550 kPa | 7.41e-07 1/kPa
263.17 K, 36560 kPa | 7.26e-07 1/kPa
263.17 K, 39590 kPa | 7.11e-07 1/kPa
263.17 K, 42670 kPa | 6.97e-07 1/kPa
263.17 K, 45790 kPa | 6.84e-07 1/kPa
263.17 K, 48960 kPa | 6.72e-07 1/kPa
263.17 K, 52170 kPa | 6.58e-07 1/kPa
263.17 K, 55430 kPa | 6.46e-07 1/kPa
263.17 K, 58830 kPa | 6.32e-07 1/kPa
263.17 K, 62280 kPa | 6.21e-07 1/kPa
263.17 K, 65720 kPa | 6.12e-07 1/kPa
263.17 K, 69340 kPa | 5.97e-07 1/kPa
263.17 K, 73030 kPa | 5.88e-07 1/kPa
263.17 K, 76640 kPa | 5.78e-07 1/kPa
263.17 K, 80310 kPa | 5.68e-07 1/kPa
263.17 K, 84120 kPa | 5.57e-07 1/kPa
263.17 K, 88070 kPa | 5.47e-07 1/kPa
263.17 K, 92050 kPa | 5.52e-07 1/kPa
263.17 K, 95980 kPa | 5.33e-07 1/kPa
263.17 K, 100060 kPa | 5.22e-07 1/kPa
273.17 K, 1010 kPa | 1.05e-06 1/kPa
273.17 K, 3000 kPa | 1.02e-06 1/kPa
273.17 K, 5050 kPa | 1e-06 1/kPa
273.17 K, 7100 kPa | 9.82e-07 1/kPa
273.17 K, 9170 kPa | 9.62e-07 1/kPa
273.17 K, 11220 kPa | 9.47e-07 1/kPa
273.17 K, 13320 kPa | 9.25e-07 1/kPa
273.17 K, 15430 kPa | 9.12e-07 1/kPa
273.17 K, 17510 kPa | 8.9e-07 1/kPa
273.17 K, 19750 kPa | 8.72e-07 1/kPa
273.17 K, 22140 kPa | 8.56e-07 1/kPa
273.17 K, 24880 kPa | 8.26e-07 1/kPa
273.17 K, 27900 kPa | 8.1e-07 1/kPa
273.17 K, 30870 kPa | 7.91e-07 1/kPa
273.17 K, 38720 kPa | 7.29e-07 1/kPa
273.17 K, 42290 kPa | 7.21e-07 1/kPa
273.17 K, 45710 kPa | 7.11e-07 1/kPa
273.17 K, 49180 kPa | 6.92e-07 1/kPa
273.17 K, 52690 kPa | 6.79e-07 1/kPa
273.17 K, 55980 kPa | 6.73e-07 1/kPa
273.17 K, 59210 kPa | 6.57e-07 1/kPa
273.17 K, 62510 kPa | 6.46e-07 1/kPa
273.17 K, 65790 kPa | 6.35e-07 1/kPa
273.17 K, 69160 kPa | 6.24e-07 1/kPa
273.17 K, 72680 kPa | 6.19e-07 1/kPa
273.17 K, 76170 kPa | 6.02e-07 1/kPa
273.17 K, 79630 kPa | 5.9e-07 1/kPa
273.17 K, 83150 kPa | 5.82e-07 1/kPa
273.17 K, 86550 kPa | 5.73e-07 1/kPa
273.17 K, 90030 kPa | 5.63e-07 1/kPa
273.17 K, 94000 kPa | 5.47e-07 1/kPa
273.17 K, 98210 kPa | 5.44e-07 1/kPa
298.16 K, 740 kPa | 1.27e-06 1/kPa
298.16 K, 2360 kPa | 1.22e-06 1/kPa
298.16 K, 4230 kPa | 1.19e-06 1/kPa
298.16 K, 6090 kPa | 1.17e-06 1/kPa
298.16 K, 7970 kPa | 1.14e-06 1/kPa
298.16 K, 9920 kPa | 1.12e-06 1/kPa
298.16 K, 11950 kPa | 1.09e-06 1/kPa
298.16 K, 14020 kPa | 1.06e-06 1/kPa
298.16 K, 16080 kPa | 1.04e-06 1/kPa
298.16 K, 18190 kPa | 1.02e-06 1/kPa
298.16 K, 20320 kPa | 1e-06 1/kPa
298.16 K, 22490 kPa | 9.82e-07 1/kPa
298.16 K, 24710 kPa | 9.59e-07 1/kPa
298.16 K, 26990 kPa | 9.37e-07 1/kPa
298.16 K, 29290 kPa | 9.23e-07 1/kPa
298.16 K, 31700 kPa | 8.99e-07 1/kPa
298.16 K, 34090 kPa | 8.85e-07 1/kPa
298.16 K, 36550 kPa | 8.65e-07 1/kPa
298.16 K, 39120 kPa | 8.47e-07 1/kPa
298.16 K, 41740 kPa | 8.3e-07 1/kPa
298.16 K, 44450 kPa | 8.14e-07 1/kPa
298.16 K, 47180 kPa | 7.96e-07 1/kPa
298.16 K, 49870 kPa | 7.83e-07 1/kPa
298.16 K, 52590 kPa | 7.68e-07 1/kPa
298.16 K, 55320 kPa | 7.57e-07 1/kPa
298.16 K, 58040 kPa | 7.43e-07 1/kPa
298.16 K, 60870 kPa | 7.28e-07 1/kPa
298.16 K, 63900 kPa | 7.14e-07 1/kPa
298.16 K, 66990 kPa | 7.03e-07 1/kPa
298.16 K, 69960 kPa | 6.89e-07 1/kPa
298.16 K, 73410 kPa | 6.65e-07 1/kPa
298.16 K, 77320 kPa | 6.55e-07 1/kPa
298.16 K, 80990 kPa | 6.49e-07 1/kPa
298.16 K, 84450 kPa | 6.37e-07 1/kPa
298.16 K, 87890 kPa | 6.41e-07 1/kPa
298.16 K, 91290 kPa | 6.17e-07 1/kPa
298.16 K, 94830 kPa | 6.05e-07 1/kPa
298.16 K, 98440 kPa | 6.02e-07 1/kPa

Reference: the NIST ThermoML archive (doi:10.1021/je060415l)
